Results taken from the OligoGym collection.
After the bases stand the sugars from the 5' end (letter, count) and the backbone: PS all phosphorothioate, else s phosphorothioate and o phosphodiester by linkage. Methylation of C is not given here. e = 2'-O-(2-methoxyethyl) (MOE); k = constrained ethyl (cEt); d = 2'-deoxy (DNA); m = 2'-O-methyl

Experiments:
IRF4 = settings: ASO
HSD17B13 = settings: ASO, HepaRG

| Sequence | target mRNA inhibition (HSD17B13; 1 µM) | other results |
| --- | --- | --- |
| AAAAGCCCAAAATAGG (sugars k3 d10 k3, PS) |  | target mRNA inhibition (IRF4; SK-MEL-28, 4 µM): -12% |
| AAAAGGTTCCTGTCAC (sugars k3 d10 k3, PS) |  | target mRNA inhibition (IRF4; MM.1R, 1 µM): -5% |
| AAACACCCCTTCTTGT (sugars k3 d10 k3, PS) |  | target mRNA inhibition (IRF4; SK-MEL-28, 4 µM): -13% |
| AAACAGAGACGCGGTG (sugars k3 d10 k3, PS) |  | target mRNA inhibition (IRF4; SK-MEL-28, 4 µM): 18% |
| AAACCAGTACAGTCCA (sugars k3 d10 k3, PS) |  | target mRNA inhibition (IRF4; MM.1R, 1 µM): -23% |
| AAACGAGAACGCACGG (sugars k3 d10 k3, PS) |  | target mRNA inhibition (IRF4; MM.1R, 1 µM): 9% |
| AAACGAGTTGACACAG (sugars k3 d10 k3, PS) |  | target mRNA inhibition (IRF4; SK-MEL-28, 4 µM): 20% |
| AAACGCAGAGCCAGTA (sugars k3 d10 k3, PS) |  | target mRNA inhibition (IRF4; SK-MEL-28, 4 µM): 37% |
| AAACTATAATTGGCAC (sugars k3 d10 k3, PS) |  | target mRNA inhibition (IRF4; SK-MEL-28, 4 µM): 30% |
| AAAGAAACGAGTTGAC (sugars k3 d10 k3, PS) |  | target mRNA inhibition (IRF4; MM.1R, 1 µM): 14% |
| AAAGACCCCAGCTATG (sugars k3 d10 k3, PS) |  | target mRNA inhibition (IRF4; SK-MEL-28, 4 µM): 23% |
| AAAGGGTAAGCACTGA (sugars k3 d10 k3, PS) |  | target mRNA inhibition (IRF4; MM.1R, 1 µM): 19% |
| AAATAAGATCCCACGA (sugars k3 d10 k3, PS) |  | target mRNA inhibition (IRF4; MM.1R, 1 µM): -7% |
| AAATCACTTGTCTTGG (sugars k3 d10 k3, PS) |  | target mRNA inhibition (IRF4; SK-MEL-28, 4 µM): 49% |
| AACAAAAGGTTCCCGC (sugars k3 d10 k3, PS) |  | target mRNA inhibition (IRF4; SK-MEL-28, 4 µM): 40% |
| AACAAATTAAAGAGCG (sugars k3 d10 k3, PS) |  | target mRNA inhibition (IRF4; SK-MEL-28, 4 µM): 23% |
| AACAATACTGTAAGGG (sugars k3 d10 k3, PS) |  | target mRNA inhibition (IRF4; SK-MEL-28, 4 µM): 51% |
| AACAATCCTGTACACT (sugars k3 d10 k3, PS) |  | target mRNA inhibition (IRF4; SK-MEL-28, 4 µM): 22% |
| AACACGGGAATTTCCA (sugars k3 d10 k3, PS) |  | target mRNA inhibition (IRF4; SK-MEL-28, 4 µM): 73% |
| AACAGATAACGAGGTG (sugars k3 d10 k3, PS) |  | target mRNA inhibition (IRF4; SK-MEL-28, 4 µM): -4% |
| AACCAGCCCTTGCTGC (sugars k3 d10 k3, PS) |  | target mRNA inhibition (IRF4; SK-MEL-28, 4 µM): 21% |
| AACCGCTGAACTGAAA (sugars k3 d10 k3, PS) |  | target mRNA inhibition (IRF4; SK-MEL-28, 4 µM): 13% |
| AACCGCTGGCAGGTGG (sugars k3 d10 k3, PS) |  | target mRNA inhibition (IRF4; SK-MEL-28, 4 µM): 40% |
| AACCGGTAGAGTGAGA (sugars k3 d10 k3, PS) |  | target mRNA inhibition (IRF4; SK-MEL-28, 4 µM): 6% |
| TTAAGATACCCAGGTT (sugars k3 d1 m1 d8 k3, PS) | 30% |  |
| TTAAGCAGAATTGTGA (sugars k3 d10 k3, PS) | 7% |  |

| Sequence | target mRNA inhibition (HSD17B13; 1 µM) | other results |
| --- | --- | --- |
| TTAAGCATTGTTAGCT (sugars k3 d10 k3, PS) | 16% |  |
| TTAATCATGGGACAGG (sugars k3 d10 k3, PS) | 27% |  |
| TTAAUGCCACCCTACC (sugars k3 d1 m1 d8 k3, PS) | 8% |  |
| TTACAACCTGGTTTCA (sugars k3 d10 k3, PS) | 25% |  |
| TTACAGCATCAAGACA (sugars k3 d1 m1 d8 k3, PS) | 46% |  |
| TTACATATCAATGCCT (sugars k3 d10 k3, PS) | 12% |  |
| TTACATTACAGCCTTA (sugars k3 d10 k3, PS) | 67% | target mRNA inhibition (HSD17B13; 0.02 µM): 0%; target mRNA inhibition (HSD17B13; 0.078 µM): 0%; target mRNA inhibition (HSD17B13; 0.313 µM): 19%; target mRNA inhibition (HSD17B13; 1.25 µM): 56%; target mRNA inhibition (HSD17B13; 5 µM): 80% |
| TTAGAGAGCGATAGAT (sugars k3 d10 k3, PS) | 23% |  |
| TTAGTATAGTTATCTT (sugars k3 d9 k3 e1, PS) | 45% |  |
| TTAGTATAGTTATCTT (sugars k3 d10 k3, PS) | 37% |  |
| TTAGUTAGAATAGTCT (sugars k3 d1 m1 d8 k3, PS) | 35% |  |
| TTATAACTACAAGAGG (sugars k3 d1 m1 d8 k3, PS) | 58% |  |
| TTATCATACCACATAC (sugars k3 d10 k3, PS) | 19% |  |
| TTATGATAATTTGGTG (sugars k3 d10 k3, PS) | 0% |  |
| TTATGTAATAGCCAGT (sugars k3 d1 m1 d8 k3, PS) | 56% |  |
| TTATGTAATAGCCAGT (sugars kkdddddddddkekek, PS) | 63% |  |
| TTATGTGATTGAGTTC (sugars k3 d1 m1 d8 k3, PS) | 35% |  |
| TTATTGTAGGGATTGA (sugars k3 d10 k3, PS) | 63% |  |
| TTCAACTAAACATGAC (sugars k3 d10 k3, PS) | 55% |  |
| TTCACCAACGACTCCA (sugars k3 d10 k3, PS) | 62% |  |
| TTCAGTTAGCAGCTAA (sugars k3 d10 k3, PS) | 72% | target mRNA inhibition (HSD17B13; 0.02 µM): 0%; target mRNA inhibition (HSD17B13; 0.078 µM): 0%; target mRNA inhibition (HSD17B13; 0.313 µM): 26%; target mRNA inhibition (HSD17B13; 1.25 µM): 63%; target mRNA inhibition (HSD17B13; 5 µM): 82% |
| TTCATAAGTAGTCTGC (sugars k3 d10 k3, PS) | 64% |  |
| TTCATAGTGGACTTCA (sugars k3 d10 k3, PS) | 51% |  |
| TTCCGTCTCACAATCT (sugars k3 d10 k3, PS) | 79% | target mRNA inhibition (HSD17B13; 0.02 µM): 10%; target mRNA inhibition (HSD17B13; 0.078 µM): 13%; target mRNA inhibition (HSD17B13; 0.313 µM): 49%; target mRNA inhibition (HSD17B13; 1.25 µM): 83%; target mRNA inhibition (HSD17B13; 5 µM): 80% |
| TTCTAGGTCAGTAGAG (sugars k3 d10 k3, PS) | 58% |  |
| TTCTATTAGTTGGCCT (sugars k3 d10 k3, PS) | 28% |  |

| Sequence | target mRNA inhibition (HSD17B13; 1 µM) | other results |
| --- | --- | --- |
| TTCTCTTGGGTCCATT (sugars k3 d10 k3, PS) | 44% |  |
| TTCTGATGTCAGACCT (sugars k3 d10 k3, PS) | 42% |  |
| TTCTGTGGCATGGCTA (sugars k3 d1 m1 d8 k3, PS) | 65% |  |
| TTCTGTGGCATGGCTA (sugars k3 d9 k3 e1, PS) | 59% |  |
| TTGAACAGTCTTAAAC (sugars k3 d1 m1 d8 k3, PS) | 11% |  |
| TTGAACAGTCTTAAAC (sugars kkdddddddddkekek, PS) | 37% |  |
| TTGAATAGCAAGCCAA (sugars k3 d9 k3 e1, PS) | 33% |  |
| TTGACATAACTTCATA (sugars k3 d10 k3, PS) | 15% |  |
| TTGACCTCAAATGTCT (sugars k3 d10 k3, PS) | 0% |  |
| TTGACTGCTGCTAGTG (sugars k3 d1 m1 d8 k3, PS) | 40% |  |
| TTGAGAGAACTTATAC (sugars k3 d10 k3, PS) | 21% |  |
| TTGAGATAAAGCTGCC (sugars kkdddddddddkekek, PS) | 2% |  |
| TTGAGATAAAGCTGCC (sugars kkkdddddkdddkkke, PS) | 43% |  |
| TTGAGTAGTGTAAGCT (sugars k3 d9 k3 e1, PS) | 40% |  |
| TTGAGTTCTCCACTGC (sugars k3 d1 m1 d8 k3, PS) | 18% |  |
| TTGATATACGATGGAA (sugars k3 d10 k3, PS) | 38% |  |
| TTGATCTCTTAGCTGT (sugars k3 d10 k3, PS) | 74% |  |
| TTGCAGAAATTCACCT (sugars k3 d1 m1 d8 k3, PS) | 29% |  |
| TTGCAGAAATTCACCT (sugars kkdddddddddkekek, PS) | 46% |  |
| TTGCAGTTATTAGAAG (sugars kkdddddddddkekek, PS) | 27% |  |
| TTGCTGGAACAATATG (sugars k3 d10 k3, PS) | 20% |  |
| TTGGAATGCTACTTGA (sugars k3 d10 k3, PS) | 72% | target mRNA inhibition (HSD17B13; 0.02 µM): 20%; target mRNA inhibition (HSD17B13; 0.078 µM): 33%; target mRNA inhibition (HSD17B13; 0.313 µM): 47%; target mRNA inhibition (HSD17B13; 1.25 µM): 80%; target mRNA inhibition (HSD17B13; 5 µM): 83% |
| TTGGTAAGTATTCCAT (sugars k3 d10 k3, PS) | 20% |  |
| TTGGTGAACCCAGTAT (sugars k3 d10 k3, PS) | 31% |  |
| TTGGTGGACTTCAGAG (sugars k3 d10 k3, PS) | 8% |  |
| TTGTAATCTTGAGGCA (sugars k3 d10 k3, PS) | 27% |  |

| Sequence | target mRNA inhibition (HSD17B13; 1 µM) | other results |
| --- | --- | --- |
| TTGTACCCTGTTCTCA (sugars k3 d10 k3, PS) | 64% |  |
| TTGTTACATCACCCAC (sugars k3 d10 k3, PS) | 34% |  |
| TTTAAAATAGAGTCGG (sugars k3 d9 k3 e1, PS) | 58% |  |
| TTTAAAATAGAGTCGG (sugars k3 d10 k3, PS) | 69% | target mRNA inhibition (HSD17B13; 0.02 µM): 0%; target mRNA inhibition (HSD17B13; 0.078 µM): 0%; target mRNA inhibition (HSD17B13; 0.313 µM): 1%; target mRNA inhibition (HSD17B13; 1.25 µM): 48%; target mRNA inhibition (HSD17B13; 5 µM): 77% |
| TTTAGAATACGCTGAG (sugars k3 d10 k3, PS) | 44% |  |
| TTTAGTATTTGGGTGT (sugars k3 d10 k3, PS) | 21% |  |
| TTTAGTCAGGTAGAGT (sugars k3 d10 k3, PS) | 30% |  |
| TTTAGTTAGAATAGTC (sugars k3 d10 k3, PS) | 15% |  |
| TTTCATAGCTCACTTA (sugars k3 d10 k3, PS) | 16% |  |
| TTTCATATCCAGTAGG (sugars k3 d10 k3, PS) | 36% |  |
| TTTCGCTACTGTAGGC (sugars k3 d10 k3, PS) | 62% |  |
| TTTTAACTACCCTCAC (sugars k3 d10 k3, PS) | 2% |  |
| TTTTAAGAGGCATGAA (sugars k3 d10 k3, PS) | 53% |  |
| TTTTACTGGGATACTA (sugars k3 d10 k3, PS) | 27% |  |
| TTTTAGGGAGGTAGCT (sugars k3 d10 k3, PS) | 39% |  |
| TTTTAGTCAGGTAGAG (sugars k3 d10 k3, PS) | 3% |  |
| TTTTATAGACTGGGTA (sugars k3 d10 k3, PS) | 53% |  |
| TTTTATTGGGCCCAAT (sugars k3 d10 k3, PS) | 18% |  |
| TTTTTAAGAGGCATGA (sugars k3 d10 k3, PS) | 60% |  |
| TTTTTAATACGACTTC (sugars k3 d10 k3, PS) | 52% |  |
| TTTTTATTGGGCCCAA (sugars k3 d10 k3, PS) | 51% |  |
| TTTTTGAACCGTATTC (sugars k3 d10 k3, PS) | 56% |  |
| TTTTTGGACAAATGCC (sugars k3 d10 k3, PS) | 50% |  |
